For orientation: inhibition means the relative decrease from the control value, in per cent.

The target of this test is T1, human NaV1.6 (hNaV1.6) (Homo sapiens, UniProt Q9UQD0).
T1 construct: expressed in transfected cells; host or cells: HEK-293
T1 sequence (Q9UQD0 whole entry): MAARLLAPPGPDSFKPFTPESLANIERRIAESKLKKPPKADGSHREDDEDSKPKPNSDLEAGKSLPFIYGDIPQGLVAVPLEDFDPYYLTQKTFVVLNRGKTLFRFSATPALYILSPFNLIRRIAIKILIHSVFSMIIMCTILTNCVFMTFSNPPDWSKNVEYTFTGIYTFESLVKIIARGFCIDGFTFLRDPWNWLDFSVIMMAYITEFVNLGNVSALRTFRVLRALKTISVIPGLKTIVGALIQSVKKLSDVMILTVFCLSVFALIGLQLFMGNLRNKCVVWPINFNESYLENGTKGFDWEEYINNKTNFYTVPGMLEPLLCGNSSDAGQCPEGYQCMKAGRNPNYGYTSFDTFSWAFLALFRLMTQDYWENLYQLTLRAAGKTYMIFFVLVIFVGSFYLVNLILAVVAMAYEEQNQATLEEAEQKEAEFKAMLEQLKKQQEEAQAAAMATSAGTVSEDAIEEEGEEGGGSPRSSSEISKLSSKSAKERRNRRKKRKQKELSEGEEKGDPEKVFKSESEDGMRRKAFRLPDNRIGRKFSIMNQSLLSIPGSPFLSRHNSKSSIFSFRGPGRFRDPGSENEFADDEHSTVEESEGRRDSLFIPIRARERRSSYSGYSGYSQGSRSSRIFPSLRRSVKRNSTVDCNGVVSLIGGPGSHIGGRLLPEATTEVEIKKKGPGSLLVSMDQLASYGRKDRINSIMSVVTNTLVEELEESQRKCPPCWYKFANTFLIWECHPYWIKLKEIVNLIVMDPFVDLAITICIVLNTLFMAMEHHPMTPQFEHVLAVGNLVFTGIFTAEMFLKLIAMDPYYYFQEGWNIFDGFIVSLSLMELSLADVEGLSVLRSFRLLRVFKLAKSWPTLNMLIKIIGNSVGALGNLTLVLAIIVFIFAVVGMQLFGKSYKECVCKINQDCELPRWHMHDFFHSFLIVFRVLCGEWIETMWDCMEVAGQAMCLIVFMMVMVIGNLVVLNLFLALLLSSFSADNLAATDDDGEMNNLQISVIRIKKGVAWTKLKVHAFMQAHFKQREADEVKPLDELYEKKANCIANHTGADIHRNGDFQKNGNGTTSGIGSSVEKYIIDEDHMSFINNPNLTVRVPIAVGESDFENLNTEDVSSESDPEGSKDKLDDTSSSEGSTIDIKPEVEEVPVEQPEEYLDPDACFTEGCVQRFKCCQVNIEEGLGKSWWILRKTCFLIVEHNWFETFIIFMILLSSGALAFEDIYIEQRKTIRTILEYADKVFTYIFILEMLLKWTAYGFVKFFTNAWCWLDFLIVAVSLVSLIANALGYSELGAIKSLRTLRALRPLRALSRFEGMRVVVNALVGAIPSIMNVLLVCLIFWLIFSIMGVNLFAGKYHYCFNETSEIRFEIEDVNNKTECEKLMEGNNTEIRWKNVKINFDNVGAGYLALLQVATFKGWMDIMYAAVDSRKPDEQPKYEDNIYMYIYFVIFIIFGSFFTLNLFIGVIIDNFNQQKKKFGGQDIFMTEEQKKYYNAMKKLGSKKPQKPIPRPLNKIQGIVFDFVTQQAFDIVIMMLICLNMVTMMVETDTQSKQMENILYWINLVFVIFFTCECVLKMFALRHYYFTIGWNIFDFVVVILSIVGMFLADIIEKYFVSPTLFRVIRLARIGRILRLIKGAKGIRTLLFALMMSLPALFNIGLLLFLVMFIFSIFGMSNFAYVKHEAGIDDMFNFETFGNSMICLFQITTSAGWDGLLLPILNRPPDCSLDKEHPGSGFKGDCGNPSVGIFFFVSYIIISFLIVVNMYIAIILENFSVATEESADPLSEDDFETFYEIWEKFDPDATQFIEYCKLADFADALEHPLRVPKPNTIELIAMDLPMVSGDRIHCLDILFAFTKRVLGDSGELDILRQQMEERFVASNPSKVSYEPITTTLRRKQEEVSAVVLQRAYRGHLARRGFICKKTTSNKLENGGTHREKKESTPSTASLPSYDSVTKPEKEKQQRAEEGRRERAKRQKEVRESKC
Nature of the test: Modulation of late sodium current (INaL), PatchXpress electrophysiology, HEK-293 cells expressing hNaV1.6. Type of test: cell-based. The conditions noted are these: HEK293, late current evoked by 300 nM ATX-II, read-out: NaV 1.6 Assay Data: percent inhibition of INaL at hNaV1.6. Here is the method: Functional characterization of exemplary compounds to modulate INaL expressed by the NaV1.6 voltage-gated sodium channel was accomplished using the PatchXpress™ high throughput electrophysiology platform (Molecular Devices, Sunnyvale, Calif.). HEK-293 cells expressing recombinant, human NaV1.6 (hNaV1.6) were grown in DMEM/high-glucose Dulbecco's modified, 10% FBS, 2 mM sodium pyruvate, 10 mM HEPES and 400 μg/mL G418. Cells were grown to 50%-80% confluency prior to harvesting. Trypsinized cells were washed, allowed to recover for 1 hour and then resuspended in extracellular recording solution at a concentration of 1×10^6 cells/ml. The onboard liquid handling facility of the PatchXpress was used for dispensing cells and applying test compounds. NaV late currents were evoked by the application of 300 nM ATX-II. INaL was evoked by depolarizing pulses to 0 mV for 200 ms from a non-inactivating holding potential (e.g., −120 mV) at a frequency of 0.1 Hz. INaL amplitude and stability were determined by analyzing the mean current amplitude over the final 20 ms of the test pulse. Following steady state block with exemplary compounds (e.g., as described herein), a Na+ free solution containing an impermeant cation (e.g., Choline or NDMG) was added to confirm the identify of the sodium current. Percent steady-state inhibition of INaL was calculated as: [(INaL_compound)/(INaL_control)]*100, where INaL_compound and INaL_control represent INaL recorded in the presence or absence of compound, respectively.
For the compound `COC(F)(F)c1nnc2cnc(-c3cnc(O[C@H](C)C(F)(F)F)c(F)c3)cn12` (racemic) [Compound 6A, 3-[difluoro(methoxy)methyl]-6-[5-fluoro-6-[rac-(1R)-2,2,2-trifluoro-1-methyl-ethoxy]-3-pyridyl]-[1,2,4]triazolo[4,3-a]pyrazine], the inhibition at 1 µM was over 70%.

Regarding `Fc1cc(-c2ccc3nnc(C(F)(F)OCC4CC4)n3c2)cnc1OCC(F)(F)F` [Compound 1, 3-[cyclopropylmethoxy(difluoro)methyl]-6-[5-fluoro-6-(2,2,2-trifluoroethoxy)-3-pyridyl]-[1,2,4]triazolo[4,3-a]pyridine], the inhibition at 1 µM was over 70%.

On to `CC(C)COC(F)(F)c1nnc2ccc(-c3cnc(OCC(F)(F)F)c(F)c3)cn12` [Compound 2, 3-[difluoro(isobutoxy)methyl]-6-[5-fluoro-6-(2,2,2-trifluoroethoxy)-3-pyridyl]-[1,2,4]triazolo[4,3-a]pyridine], for which the inhibition at 1 µM is over 70%.

Consider `CC(C)OC(F)(F)c1nnc2ccc(-c3cnc(OCC(F)(F)F)c(F)c3)cn12` [Compound 4, 3-[difluoro(isopropoxy)methyl]-6-[5-fluoro-6-(2,2,2-trifluoroethoxy)-3-pyridyl]-[1,2,4]triazolo[4,3-a]pyridine], for which the inhibition at 1 µM is over 70%.

On to `COC(F)(F)c1nnc2ccc(-c3cnc(OC(C)(C)C(F)(F)F)c(F)c3)nn12` [Compound 5, 3-[difluoro(methoxy)methyl]-6-[5-fluoro-6-(2,2,2-trifluoro-1,1-dimethyl-ethoxy)-3-pyridyl]-[1,2,4]triazolo[4,3-b]pyridazine], for which the inhibition at 1 µM is over 70%.

Consider `COC(F)(F)c1nnc2ccc(-c3cnc(O[C@@H](C)C(F)(F)F)c(F)c3)cn12` [Compound 7, 3-[difluoro(methoxy)methyl]-6-[5-fluoro-6-[(1S)-2,2,2-trifluoro-1-methyl-ethoxy]-3-pyridyl]-[1,2,4]triazolo[4,3-a]pyridine], for which the inhibition at 1 µM is over 70%.

Regarding `COC(F)(F)c1nnc2ccc(-c3cnc(O[C@H](C)C(F)(F)F)c(F)c3)cn12` [Compound 8, 3-[difluoro(methoxy)methyl]-6-[5-fluoro-6-[(1R)-2,2,2-trifluoro-1-methyl-ethoxy]-3-pyridyl]-[1,2,4]triazolo[4,3-a]pyridine], the inhibition at 1 µM is over 70%.

Regarding `Fc1cc(-c2cn3c(C(F)(F)OCC4CC4)nnc3cn2)cnc1OCC(F)(F)F` [Compound 9, 3-[cyclopropylmethoxy(difluoro)methyl]-6-[5-fluoro-6-(2,2,2-trifluoroethoxy)-3-pyridyl]-[1,2,4]triazolo[4,3-a]pyrazine], the inhibition at 1 µM was over 70%.

With `COC(F)(F)c1nnc2ccc(-c3cnc(O[C@@H](C)C(F)(F)F)c(F)c3)nn12` [Compound 12, 3-[difluoro(methoxy)methyl]-6-[5-fluoro-6-[(1S)-2,2,2-trifluoro-1-methyl-ethoxy]-3-pyridyl]-[1,2,4]triazolo[4,3-b]pyridazine], the inhibition at 1 µM is over 70%.

Consider `COC(F)(F)c1nnc2ccc(-c3cnc(O[C@H](C)C(F)(F)F)c(F)c3)nn12` [Compound 13, 3-[difluoro(methoxy)methyl]-6-[5-fluoro-6-[(1R)-2,2,2-trifluoro-1-methyl-ethoxy]-3-pyridyl]-[1,2,4]triazolo[4,3-b]pyridazine], for which the inhibition at 1 µM is over 70%.

In the case of `Fc1cc(-c2ccc3nnc(C(F)(F)OCC4CC4)n3n2)cnc1OCC(F)(F)F` [Compound 14, 3-[cyclopropylmethoxy(difluoro)methyl]-6-[5-fluoro-6-(2,2,2-trifluoroethoxy)-3-pyridyl]-[1,2,4]triazolo[4,3-b]pyridazine], the inhibition at 1 µM was over 70%.

With `COC(F)(F)c1nnc2cnc(-c3cnc(OC(C)(C)C(F)(F)F)c(F)c3)cn12` [Compound 15, 3-[difluoro(methoxy)methyl]-6-[5-fluoro-6-(2,2,2-trifluoro-1,1-dimethyl-ethoxy)-3-pyridyl]-[1,2,4]triazolo[4,3-a]pyrazine], the inhibition at 1 µM was over 70%.

Regarding `COC(F)(F)c1nnc2ccc(-c3cnc(OC4(C(F)(F)F)CCC4)c(F)c3)nn12` [Compound 17, 3-[difluoro(methoxy)methyl]-6-[5-fluoro-6-[1-(trifluoromethyl)cyclobutoxy]-3-pyridyl]-[1,2,4]triazolo[4,3-b]pyridazine], the inhibition at 1 µM was over 70%.

As to `COC(F)(F)c1nnc2ccc(-c3cnc(OC4(C(F)(F)F)CCC4)c(F)c3)cn12` [Compound 18, 3-[difluoro(methoxy)methyl]-6-[5-fluoro-6-[1-(trifluoromethyl)cyclobutoxy]-3-pyridyl]-[1,2,4]triazolo[4,3-a]pyridine], the inhibition at 1 µM was over 70%.

For the compound `C[C@H](Oc1ncc(-c2ccc3nnc(C(F)(F)OCC4CC4)n3c2)cc1F)C(F)(F)F` [Compound 19, 3-[cyclopropylmethoxy(difluoro)methyl]-6-[5-fluoro-6-[(1S)-2,2,2-trifluoro-1-methyl-ethoxy]-3-pyridyl]-[1,2,4]triazolo[4,3-a]pyridine], the inhibition at 1 µM was over 70%.

As for `CC(C)OC(F)(F)c1nnc2ccc(-c3cnc(O[C@@H](C)C(F)(F)F)c(F)c3)cn12` [Compound 20, 3-[difluoro(isopropoxy)methyl]-6-[5-fluoro-6-[(1S)-2,2,2-trifluoro-1-methyl-ethoxy]-3-pyridyl]-[1,2,4]triazolo[4,3-a]pyridine], the inhibition at 1 µM is over 70%.

`CC(C)OC(F)(F)c1nnc2ccc(-c3cnc(O[C@H](C)C(F)(F)F)c(F)c3)cn12` [Compound 21, 3-[difluoro(isopropoxy)methyl]-6-[5-fluoro-6-[(1R)-2,2,2-trifluoro-1-methyl-ethoxy]-3-pyridyl]-[1,2,4]triazolo[4,3-a]pyridine]: the inhibition at 1 µM was over 70%.

Turning to `CC(C)COC(F)(F)c1nnc2ccc(-c3cnc(O[C@@H](C)C(F)(F)F)c(F)c3)cn12` [Compound 22, 3-[difluoro(isobutoxy)methyl]-6-[5-fluoro-6-[(1S)-2,2,2-trifluoro-1-methyl-ethoxy]-3-pyridyl]-[1,2,4]triazolo[4,3-a]pyridine], the inhibition at 1 µM is over 70%.

As for `CC(C)COC(F)(F)c1nnc2ccc(-c3cnc(O[C@H](C)C(F)(F)F)c(F)c3)cn12` [Compound 23, 3-[difluoro(isobutoxy)methyl]-6-[5-fluoro-6-[(1R)-2,2,2-trifluoro-1-methyl-ethoxy]-3-pyridyl]-[1,2,4]triazolo[4,3-a]pyridine], the inhibition at 1 µM was over 70%.

Consider `COC(F)(F)c1nnc2ccc(-c3cnc(OC(C)(C)C(F)(F)F)c(F)c3)cn12` [Compound 24, 3-[difluoro(methoxy)methyl]-6-[5-fluoro-6-(2,2,2-trifluoro-1,1-dimethyl-ethoxy)-3-pyridyl]-[1,2,4]triazolo[4,3-a]pyridine], for which the inhibition at 1 µM is over 70%.

In the case of `C[C@@H](Oc1ncc(-c2ccc3nnc(C(F)(F)OCC4CC4)n3c2)cc1F)C(F)(F)F` [Compound 25, 3-[cyclopropylmethoxy(difluoro)methyl]-6-[5-fluoro-6-[(1R)-2,2,2-trifluoro-1-methyl-ethoxy]-3-pyridyl]-[1,2,4]triazolo[4,3-a]pyridine], the inhibition at 1 µM is over 70%.

On to `CCOC(F)(F)c1nnc2cnc(-c3cnc(O[C@H](C)C(F)(F)F)c(F)c3)cn12` [Compound 26, 3-[ethoxy(difluoro)methyl]-6-[5-fluoro-6-[(1R)-2,2,2-trifluoro-1-methyl-ethoxy]-3-pyridyl]-[1,2,4]triazolo[4,3-a]pyrazine], for which the inhibition at 1 µM was over 70%.

In the case of `COCc1nnc2ccc(-c3cnc(OC(C)(C)C(F)(F)F)c(F)c3)nn12` [Compound 27, 6-[5-fluoro-6-(2,2,2-trifluoro-1,1-dimethyl-ethoxy)-3-pyridyl]-3-(methoxymethyl)-[1,2,4]triazolo[4,3-b]pyridazine], the inhibition at 1 µM was over 70%.

As to `COCc1nnc2ccc(-c3cnc(OC(C)(C)C(F)(F)F)c(F)c3)cn12` [Compound 28, 6-[5-fluoro-6-(2,2,2-trifluoro-1,1-dimethyl-ethoxy)-3-pyridyl]-3-(methoxymethyl)-[1,2,4]triazolo[4,3-a]pyridine], the inhibition at 1 µM was over 70%.

As to `COCc1nnc2ccc(-c3cnc(OCC(F)(F)F)c(F)c3)cn12` [Compound 29, 6-[5-fluoro-6-(2,2,2-trifluoroethoxy)-3-pyridyl]-3-(methoxymethyl)-[1,2,4]triazolo[4,3-a]pyridine], the inhibition at 1 µM was under 30%.

As to `COC(F)(F)c1nnc2ccc(-c3cnc(OCC(F)(F)F)c(F)c3)cn12` [Compound 30, 3-[difluoro(methoxy)methyl]-6-[5-fluoro-6-(2,2,2-trifluoroethoxy)-3-pyridyl]-[1,2,4]triazolo[4,3-a]pyridine], the inhibition at 1 µM was over 70%.

On to `COCc1nnc2cnc(-c3cnc(O[C@H](C)C(F)(F)F)c(F)c3)cn12` [Compound 31, 6-[5-fluoro-6-[(1R)-2,2,2-trifluoro-1-methyl-ethoxy]-3-pyridyl]-3-(methoxymethyl)-[1,2,4]triazolo[4,3-a]pyrazine], for which the inhibition at 1 µM is under 30%.

(Values after patent US11731976B2, “3-(ethoxydifluoromethyl)-6-(5-fluoro-6-(2,2,2-trifluoroethoxy)pyridin-3-yl)-[1,2,4]triazolo[4,3-a]pyridine as an ion channel modulator” (Praxis Precision Medicines, Inc., priority 2018, dated 2023).)
